Values joined by “and” are separate entries in the source; they are usually repeats but may differ in a detail not shown here. Identical values can stand only once. Inconclusive results and toxic doses are left out. Rule as the data show it: active = T/C of 150% or more; inactive = T/C below 125%.
System: L1210 leukemia ip in BDF1 mice, survival T/C
Assay: NCI In Vivo Anticancer Drug Screen. Data for tumor model L1210 Leukemia (intraperitoneal) in B6D2F1 (BDF1) mice
Conditions: endpoint: mean survival time, higher = longer survival
How it was run: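 In this screen, tumor-bearing mice given compound are compared to those given vehicle, and their survival values are reported as a treated-to-control quotient.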

[1] = dose: 100.0 mg/kg/injection, schedule: Q01DX009 (ip), vehicle: saline with Tween-80
[2] = dose: 200.0 mg/kg/injection, schedule: Q01DX009 (ip), vehicle: saline with Tween-80
[3] = dose: 400.0 mg/kg/injection, schedule: Q01DX009 (ip), vehicle: saline with Tween-80
[4] = dose: 75.0 mg/kg/injection, schedule: Q01DX001 (ip), vehicle: saline
[5] = dose: 150.0 mg/kg/injection, schedule: Q01DX001 (ip), vehicle: saline
[6] = dose: 300.0 mg/kg/injection, schedule: Q01DX001 (ip), vehicle: saline
[7] = dose: 100.0 mg/kg/injection, schedule: Q04DX003 (ip), vehicle: Klucel (hydroxypropylcellulose) (HPC)
[8] = dose: 200.0 mg/kg/injection, schedule: Q04DX003 (ip), vehicle: Klucel (hydroxypropylcellulose) (HPC)
[9] = dose: 100.0 mg/kg/injection, schedule: Q01DX001 (ip), vehicle: carboxymethylcellulose (CMC)
[10] = dose: 100.0 mg/kg/injection, schedule: Q01DX009 (ip), vehicle: Klucel (hydroxypropylcellulose) (HPC)
[11] = dose: 200.0 mg/kg/injection, schedule: Q01DX009 (ip), vehicle: Klucel (hydroxypropylcellulose) (HPC)
[12] = dose: 400.0 mg/kg/injection, schedule: Q01DX009 (ip), vehicle: Klucel (hydroxypropylcellulose) (HPC)
[13] = dose: 100.0 mg/kg/injection, schedule: Q01DX001 (ip), vehicle: saline
[14] = dose: 200.0 mg/kg/injection, schedule: Q01DX001 (ip), vehicle: saline
[15] = dose: 400.0 mg/kg/injection, schedule: Q01DX001 (ip), vehicle: saline
[16] = dose: 400.0 mg/kg/injection, schedule: Q04DX003 (ip), vehicle: Klucel (hydroxypropylcellulose) (HPC)

Measured: T/C

Cc1cccc(C)c1NC(=S)N1CCOCC1
inactive: dose: 100.0 mg/kg/injection, schedule: Q01DX009 (ip), vehicle: other 106 % of control | dose: 200.0 mg/kg/injection, schedule: Q01DX009 (ip), vehicle: other 116 % of control | dose: 400.0 mg/kg/injection, schedule: Q01DX009 (ip), vehicle: other 122 % of control

CC1=CS(=O)(=O)CC(=O)N1
inactive: [1] 101 % of control | [2] 100 % of control | [3] 97 % of control

O=C(O)c1n[nH]nc1[N+](=O)[O-]
inactive: [4] 96 % of control | [5] 105 % of control | [6] 98 % of control

CC(C)c1ccc(/C=N\NC(=O)N/N=C/c2ccc(C(C)C)cc2)cc1
inactive: [7] 93 % of control | [8] 88 % of control

O=C(Nc1ccccc1F)C(Cl)(Cl)Cl
inactive: dose: 100.0 mg/kg/injection, schedule: Q04DX002 (ip), vehicle: Klucel (hydroxypropylcellulose) (HPC) 104 % of control | dose: 200.0 mg/kg/injection, schedule: Q04DX002 (ip), vehicle: Klucel (hydroxypropylcellulose) (HPC) 104 % of control

C=CCOC(=O)Nc1ccc(S(=O)(=O)CC)cc1
inactive: [9] 94 % of control | dose: 200.0 mg/kg/injection, schedule: Q01DX001 (ip), vehicle: carboxymethylcellulose (CMC) 102 % of control | dose: 400.0 mg/kg/injection, schedule: Q01DX001 (ip), vehicle: carboxymethylcellulose (CMC) 91 % of control

CC(C)(C)C#C[P+](C#CC(C)(C)C)(Cc1ccccc1)c1ccccc1
inactive: dose: 12.5 mg/kg/injection, schedule: Q01DX009 (ip), vehicle: saline 99 % of control | dose: 12.5 mg/kg/injection, schedule: Q04DX003 (ip), vehicle: saline 98 % of control | dose: 25.0 mg/kg/injection, schedule: Q01DX009 (ip), vehicle: saline 94 % of control | dose: 25.0 mg/kg/injection, schedule: Q04DX003 (ip), vehicle: saline 106 % of control | dose: 50.0 mg/kg/injection, schedule: Q04DX003 (ip), vehicle: saline 117 % of control

COc1ccc2c(n1)Sc1c(N)nc(N)nc1N2
inactive: [10] 103 % of control | [11] 103 % of control | [12] 88 % of control

Oc1[nH]c(=S)sc1C1=c2ccccc2=NCC1
inactive: dose: 44.4 mg/kg/injection, schedule: Q01DX001 (ip), vehicle: carboxymethylcellulose (CMC) 93 % of control and 94 % of control | dose: 66.7 mg/kg/injection, schedule: Q01DX001 (ip), vehicle: carboxymethylcellulose (CMC) 96 % of control and 106 % of control | [9] 98 % of control and 107 % of control | dose: 150.0 mg/kg/injection, schedule: Q01DX001 (ip), vehicle: carboxymethylcellulose (CMC) 98 % of control and 100 % of control

CN(C)Cc1ccccc1C(O)(c1ccccc1)c1ccccc1CN(C)C
inactive: dose: 8.0 mg/kg/injection, schedule: Q01DX015 (ip), vehicle: carboxymethylcellulose (CMC) 91 % of control | dose: 16.0 mg/kg/injection, schedule: Q01DX015 (ip), vehicle: carboxymethylcellulose (CMC) 90 % of control | dose: 32.0 mg/kg/injection, schedule: Q01DX015 (ip), vehicle: carboxymethylcellulose (CMC) 88 % of control

CC(C)OC(=O)C(C)OC(=O)OCCOCCOC(=O)OC(C)C(=O)OC(C)C (centres undefined)
inactive: [13] 96 % of control | [14] 100 % of control | [15] 100 % of control

O=C1CCCC/C1=C/c1ccc(Cl)cc1
inactive: [10] 95 % of control | [7] 103 % of control | [11] 98 % of control | [8] 106 % of control | [12] 101 % of control | [16] 105 % of control

CC(=O)C1CC[C@@]2(C)C(CC[C@H]3[C@@H]4CCC[C@H]([C@H](C)O)[C@@]4(C)CC[C@@H]32)C1 (some centres undefined)
inactive: dose: 100.0 mg/kg/injection, schedule: Q04DX003 (ip), vehicle: steriod suspending solution 106 % of control | dose: 200.0 mg/kg/injection, schedule: Q04DX003 (ip), vehicle: steriod suspending solution 95 % of control | dose: 400.0 mg/kg/injection, schedule: Q04DX003 (ip), vehicle: steriod suspending solution 119 % of control

CCOC(=N)c1ccc(P(=O)(O)O)cc1
inactive: [4] 97 % of control | [5] 96 % of control | [6] 102 % of control

CC1(C)CCC(C)(C)c2c1ccc(O)c2Cc1c(O)ccc2c1C(C)(C)CCC2(C)C
inactive: [7] 96 % of control | [14] 87 % of control | [8] 96 % of control | [16] 94 % of control

Nc1cc(Cl)cc2c1-c1c(Cl)cc(Cl)cc1C2O (centres undefined)
inactive: [10] 102 % of control | [7] 102 % of control | [11] 100 % of control | [8] 105 % of control | [16] 97 % of control

O=C(NC1CCCC1O)c1ccccc1 (centres undefined)
inactive: dose: 50.0 mg/kg/injection, schedule: Q01DX009 (ip), vehicle: saline with Tween-80 95 % of control | [1] 95 % of control | [2] 98 % of control

c1ccn2nnnc2c1
inactive: dose: 100.0 mg/kg/injection, schedule: Q01DX001 (ip), vehicle: other 97 % of control | dose: 200.0 mg/kg/injection, schedule: Q01DX001 (ip), vehicle: other 94 % of control

COC1/C=C\OC2(C)Oc3c(C)c(O)c4c(O)c(c(/C=N\OCCCc5ccccc5)c(O)c4c3C2=O)NC(=O)/C(C)=C\C=C/C(C)C(O)C(C)C(O)C(C)C(OC(C)=O)C1C (centres undefined)
inactive: dose: 25.0 mg/kg/injection, schedule: Q04DX003 (ip), vehicle: water 96 % of control | dose: 50.0 mg/kg/injection, schedule: Q04DX003 (ip), vehicle: water 104 % of control | dose: 100.0 mg/kg/injection, schedule: Q04DX003 (ip), vehicle: water 100 % of control | dose: 200.0 mg/kg/injection, schedule: Q04DX003 (ip), vehicle: water 100 % of control

COP1(=O)OCC(C)CO1 (centres undefined)
inactive: [13] 102 % of control | [14] 93 % of control | [15] 98 % of control

CC(=O)OCC(=O)C1(O)C(C)CC2C3C=C(C)C4=Cc5c(cnn5-c5ccccc5)CC4(C)C3C(O)CC21C (centres undefined)
inactive: dose: 8.0 mg/kg/injection, schedule: Q01DX001 (sc), vehicle: steriod suspending solution 110 % of control | dose: 16.0 mg/kg/injection, schedule: Q01DX001 (sc), vehicle: steriod suspending solution 105 % of control | dose: 32.0 mg/kg/injection, schedule: Q01DX001 (sc), vehicle: steriod suspending solution 113 % of control | dose: 45.0 mg/kg/injection, schedule: Q01DX001 (sc), vehicle: steriod suspending solution 106 % of control | dose: 70.0 mg/kg/injection, schedule: Q01DX001 (sc), vehicle: steriod suspending solution 89 % of control | dose: 105.0 mg/kg/injection, schedule: Q01DX001 (sc), vehicle: steriod suspending solution 95 % of control | dose: 160.0 mg/kg/injection, schedule: Q01DX001 (sc), vehicle: steriod suspending solution 98 % of control | dose: 240.0 mg/kg/injection, schedule: Q01DX001 (sc), vehicle: steriod suspending solution 110 % of control | dose: 360.0 mg/kg/injection, schedule: Q01DX001 (sc), vehicle: steriod suspending solution 93 % of control

CCn1ncc2c(Nc3ccccc3)c(C(=O)c3ccccc3)cnc21
inactive: [7] 93 % of control | [8] 97 % of control | [16] 97 % of control

COc1cc(/C=C(\C(=O)O)c2cccc3ccccc23)cc(OC)c1OC
inactive: [7] 97 % of control | [8] 107 % of control | [16] 102 % of control

CCSC(SCC)C(OC(C)=O)C(OC(C)=O)C(OC(C)=O)C(C)OC(C)=O (centres undefined)
inactive: dose: 100.0 mg/kg/injection, schedule: Q01DX001 (ip), vehicle: saline with Tween-80 99 % of control | [1] 95 % of control and 89 % of control | dose: 100.0 mg/kg/injection, schedule: Q04DX002 (ip), vehicle: saline with Tween-80 93 % of control and 105 % of control | dose: 100.0 mg/kg/injection, schedule: Q04DX003 (ip), vehicle: saline with Tween-80 107 % of control | dose: 200.0 mg/kg/injection, schedule: Q01DX001 (ip), vehicle: saline with Tween-80 103 % of control | [2] 98 % of control and 100 % of control | dose: 200.0 mg/kg/injection, schedule: Q04DX002 (ip), vehicle: saline with Tween-80 94 % of control and 92 % of control | dose: 200.0 mg/kg/injection, schedule: Q04DX003 (ip), vehicle: saline with Tween-80 91 % of control | dose: 400.0 mg/kg/injection, schedule: Q01DX001 (ip), vehicle: saline with Tween-80 101 % of control | [3] 87 % of control and 88 % of control | dose: 400.0 mg/kg/injection, schedule: Q04DX002 (ip), vehicle: saline with Tween-80 100 % of control and 87 % of control | dose: 400.0 mg/kg/injection, schedule: Q04DX003 (ip), vehicle: saline with Tween-80 93 % of control

— PubChem BioAssay AID248 (DTP/NCI, 2004)
